Where “and” joins values, the source holds several entries; their conditions need not be identical. Equal entries are not always repeated. Toxic doses and inconclusive results are not listed.
Tested on: L1210 leukemia ip in BDF1 mice, survival T/C
Assay: NCI In Vivo Anticancer Drug Screen. Data for tumor model L1210 Leukemia (intraperitoneal) in B6D2F1 (BDF1) mice
Conditions: endpoint: mean survival time, higher = longer survival
How it was run: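 Transplantable tumor model; survival measured in treated vs vehicle control mice. Value = treated/control.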

[1] = dose: 50.0 mg/kg/injection, schedule: Q01DX009 (ip), vehicle: Klucel (hydroxypropylcellulose) (HPC)
[2] = dose: 100.0 mg/kg/injection, schedule: Q01DX001 (ip), vehicle: saline
[3] = dose: 100.0 mg/kg/injection, schedule: Q01DX009 (ip), vehicle: Klucel (hydroxypropylcellulose) (HPC)
[4] = dose: 100.0 mg/kg/injection, schedule: Q01DX009 (ip), vehicle: saline
[5] = dose: 100.0 mg/kg/injection, schedule: Q04DX003 (ip), vehicle: saline with Tween-80
[6] = dose: 200.0 mg/kg/injection, schedule: Q04DX003 (ip), vehicle: saline with Tween-80
[7] = dose: 400.0 mg/kg/injection, schedule: Q04DX003 (ip), vehicle: saline with Tween-80
[8] = dose: 100.0 mg/kg/injection, schedule: Q04DX003 (ip), vehicle: Klucel (hydroxypropylcellulose) (HPC)
[9] = dose: 200.0 mg/kg/injection, schedule: Q01DX009 (ip), vehicle: Klucel (hydroxypropylcellulose) (HPC)
[10] = dose: 200.0 mg/kg/injection, schedule: Q04DX003 (ip), vehicle: Klucel (hydroxypropylcellulose) (HPC)
[11] = dose: 400.0 mg/kg/injection, schedule: Q04DX003 (ip), vehicle: Klucel (hydroxypropylcellulose) (HPC)
[12] = dose: 100.0 mg/kg/injection, schedule: Q04DX002 (ip), vehicle: saline
[13] = dose: 50.0 mg/kg/injection, schedule: Q01DX009 (ip), vehicle: saline with Tween-80
[14] = dose: 100.0 mg/kg/injection, schedule: Q01DX009 (ip), vehicle: saline with Tween-80
[15] = dose: 200.0 mg/kg/injection, schedule: Q01DX009 (ip), vehicle: saline with Tween-80
[16] = dose: 400.0 mg/kg/injection, schedule: Q01DX009 (ip), vehicle: Klucel (hydroxypropylcellulose) (HPC)
[17] = dose: 100.0 mg/kg/injection, schedule: Q04DX003 (ip), vehicle: saline
[18] = dose: 200.0 mg/kg/injection, schedule: Q04DX003 (ip), vehicle: saline
[19] = dose: 400.0 mg/kg/injection, schedule: Q04DX003 (ip), vehicle: saline

In the case of `COC1=C(Br)[C@H](O)[C@](O)(CC#N)C=C1Br`, the T/C (dose: 12.5 mg/kg/injection, schedule: Q01DX009 (ip), vehicle: saline) is reported as 97 % of control, the T/C (dose: 25.0 mg/kg/injection, schedule: Q01DX001 (ip), vehicle: Klucel (hydroxypropylcellulose) (HPC)) is reported as 97 % of control and the T/C (dose: 25.0 mg/kg/injection, schedule: Q01DX009 (ip), vehicle: Klucel (hydroxypropylcellulose) (HPC)) is reported as 101 % of control. For the same compound, the T/C (dose: 25.0 mg/kg/injection, schedule: Q01DX009 (ip), vehicle: saline) was 110 % of control, the T/C (dose: 44.0 mg/kg/injection, schedule: Q01DX001 (ip), vehicle: saline) was 103 % of control and the T/C (dose: 50.0 mg/kg/injection, schedule: Q01DX001 (ip), vehicle: Klucel (hydroxypropylcellulose) (HPC)) was 104 % of control. The T/C [1] was 94 % of control, the T/C (dose: 50.0 mg/kg/injection, schedule: Q01DX009 (ip), vehicle: saline) was 107 % of control and the T/C (dose: 66.0 mg/kg/injection, schedule: Q01DX001 (ip), vehicle: saline) was 106 % of control. For the same compound, the T/C [2] was 117 % of control and 229 % of control, the T/C [3] was 108 % of control and the T/C [4] was 91 % of control. For the same compound, the T/C (dose: 150.0 mg/kg/injection, schedule: Q01DX001 (ip), vehicle: saline) was 121 % of control.

For `CN(C)C(=O)Sc1cccc([N+](=O)[O-])c1`, the T/C [5] was 109 % of control, the T/C [6] was 111 % of control and the T/C [7] was 103 % of control.

With `CCCCCCCCCCOC(=O)C[n+]1cccc(C(N)=O)c1` the T/C (dose: 12.5 mg/kg/injection, schedule: Q04DX003 (ip), vehicle: saline) was 96 % of control, the T/C (dose: 25.0 mg/kg/injection, schedule: Q04DX003 (ip), vehicle: saline) was 102 % of control and the T/C (dose: 50.0 mg/kg/injection, schedule: Q04DX003 (ip), vehicle: saline) was 93 % of control.

In the case of `CC1(C)C2CCC(C2)C1C(=O)O` (stereo not drawn), the T/C [5] is reported as 95 % of control, the T/C [6] is reported as 91 % of control and the T/C [7] is reported as 100 % of control.

`COC(=O)c1ccc(C)c(-n2c(-c3ccccc3)nnc2-c2ccccc2)c1` was tested, and the T/C [1] was 102 % of control, the T/C [3] was 93 % of control and the T/C [8] was 95 % of control. The T/C [9] was 95 % of control, the T/C [10] was 92 % of control and the T/C [11] was 97 % of control.

In the case of `Nc1cc(C(=O)Nc2cccc(C3=NCCCN3)c2)ccc1C(=O)Nc1cccc(C2=NCCCN2)c1`, the T/C (dose: 0.17 mg/kg/injection, schedule: Q01DX Z (ip), vehicle: water) is reported as 100 % of control, the T/C (dose: 0.34 mg/kg/injection, schedule: Q01DX Z (ip), vehicle: water) is reported as 90 % of control and the T/C (dose: 0.68 mg/kg/injection, schedule: Q01DX Z (ip), vehicle: water) is reported as 88 % of control.

`CCOC(=O)C(C#N)(C1C=CCC1)C1C=CCC1` (stereo not drawn) was tested, and the T/C [5] was 100 % of control, the T/C [6] was 100 % of control and the T/C [7] was 100 % of control.

For `CCCN=Cc1ccccc1O.CCCN=Cc1ccccc1O.[Ni]`, the T/C (dose: 75.0 mg/kg/injection, schedule: Q01DX001 (ip), vehicle: other) was 95 % of control and the T/C (dose: 150.0 mg/kg/injection, schedule: Q01DX001 (ip), vehicle: other) was 108 % of control.

For `COC(=O)C1C2OC3C(OC(=O)C31)C2Br` (stereo not drawn), the T/C [8] was 91 % of control, the T/C [10] was 96 % of control and the T/C [11] was 102 % of control.

In the case of `CCCCCN1CCCC(OC(=O)N(C)C)C1` (stereo not drawn), the T/C (dose: 25.0 mg/kg/injection, schedule: Q04DX002 (ip), vehicle: saline) is reported as 106 % of control, the T/C (dose: 50.0 mg/kg/injection, schedule: Q04DX002 (ip), vehicle: saline) is reported as 103 % of control and the T/C [12] is reported as 86 % of control.

In the case of `COc1ccc(/C=N/NC(=O)C[n+]2ccccc2)cc1`, the T/C [13] is reported as 91 % of control, the T/C [14] is reported as 112 % of control and the T/C [15] is reported as 88 % of control.

With `CC1(C)C2CCC(I)(C2)C1I` (stereo not drawn) the T/C (dose: 100.0 mg/kg/injection, schedule: Q01DX001 (ip), vehicle: saline with Tween-80) was 93 % of control, the T/C (dose: 200.0 mg/kg/injection, schedule: Q01DX001 (ip), vehicle: saline with Tween-80) was 90 % of control and the T/C (dose: 400.0 mg/kg/injection, schedule: Q01DX001 (ip), vehicle: saline with Tween-80) was 93 % of control.

For `Cc1cccc(C)c1NC(=O)OCCOc1ccc(Cl)cc1Cl`, the T/C [13] was 90 % of control, the T/C [14] was 95 % of control and the T/C [15] was 95 % of control.

`CCOC(=O)C(C(=O)OCC)C(=O)c1cccc2ccc3ccccc3c12` was tested, and the T/C [5] was 96 % of control, the T/C [6] was 96 % of control and the T/C [7] was 97 % of control.

With `O=C(CCCCCCCCC(=O)OO)OO` (tested in a mixture with another compound) the T/C [5] was 98 % of control, the T/C [6] was 92 % of control and the T/C [7] was 90 % of control.

`CC(=O)CCCOc1ccc([N+](=O)[O-])cc1` was tested, and the T/C [2] was 98 % of control, the T/C (dose: 200.0 mg/kg/injection, schedule: Q01DX001 (ip), vehicle: saline) was 98 % of control and the T/C (dose: 400.0 mg/kg/injection, schedule: Q01DX001 (ip), vehicle: saline) was 101 % of control.

In the case of `COc1ccc(OCCS(=O)(=O)C(CCOS(C)(=O)=O)COS(C)(=O)=O)cc1` (stereo not drawn), the T/C [3] is reported as 96 % of control, the T/C [9] is reported as 93 % of control and the T/C [16] is reported as 98 % of control.

In the case of `O=C1CSC(=S)N1c1ccco1`, the T/C [4] is reported as 102 % of control, the T/C [17] is reported as 93 % of control and the T/C (dose: 200.0 mg/kg/injection, schedule: Q01DX009 (ip), vehicle: saline) is reported as 102 % of control. For the same compound, the T/C [18] was 88 % of control and the T/C [19] was 93 % of control.

For `O=C(O)c1ccc(NC(=S)Nc2ccc(C(=O)O)cc2)cc1`, the T/C [14] was 93 % of control, the T/C [17] was 94 % of control and the T/C [15] was 112 % of control. For the same compound, the T/C [18] was 100 % of control, the T/C (dose: 400.0 mg/kg/injection, schedule: Q01DX009 (ip), vehicle: saline with Tween-80) was 93 % of control and the T/C [19] was 104 % of control.

With `Nc1nc(Cl)cc2c1ncn2C1OC(CO)C(O)C1O` (stereo not drawn) the T/C (dose: 100.0 mg/kg/injection, schedule: Q01DX005 (ip), vehicle: saline) was 105 % of control and the T/C (dose: 200.0 mg/kg/injection, schedule: Q01DX005 (ip), vehicle: saline) was 107 % of control.

With `O=C(COc1ccc(Cl)cc1Cl)Nc1ccc2ccccc2c1` the T/C [12] was 95 % of control and 96 % of control, the T/C (dose: 200.0 mg/kg/injection, schedule: Q04DX002 (ip), vehicle: saline) was 103 % of control and the T/C (dose: 400.0 mg/kg/injection, schedule: Q04DX002 (ip), vehicle: saline) was 107 % of control and 92 % of control.

`CC(C)C(C#Cc1ccccc1)N1CCCCC1` (stereo not drawn) was tested, and the T/C (dose: 100.0 mg/kg/injection, schedule: Q04DX002 (ip), vehicle: saline with Tween-80) was 103 % of control, the T/C (dose: 200.0 mg/kg/injection, schedule: Q04DX002 (ip), vehicle: saline with Tween-80) was 87 % of control and the T/C (dose: 400.0 mg/kg/injection, schedule: Q04DX002 (ip), vehicle: saline with Tween-80) was 97 % of control.

In the case of `COc1cc(Cl)ccc1NC(=O)Oc1cccc(NC(C)=O)c1`, the T/C [3] is reported as 100 % of control, the T/C [9] is reported as 89 % of control and the T/C [16] is reported as 100 % of control.

`O=C1C(O)=C(c2ccc(O)cc2)C(=O)C(O)=C1c1ccc(O)cc1` was tested, and the T/C (dose: 25.0 mg/kg/injection, schedule: Q04DX002 (ip), vehicle: Klucel (hydroxypropylcellulose) (HPC)) was 88 % of control, the T/C (dose: 25.0 mg/kg/injection, schedule: Q04DX002 (oral), vehicle: saline with Tween-80) was 105 % of control and the T/C (dose: 50.0 mg/kg/injection, schedule: Q04DX002 (ip), vehicle: Klucel (hydroxypropylcellulose) (HPC)) was 95 % of control. For the same compound, the T/C (dose: 50.0 mg/kg/injection, schedule: Q04DX002 (oral), vehicle: saline with Tween-80) was 98 % of control, the T/C (dose: 100.0 mg/kg/injection, schedule: Q04DX002 (ip), vehicle: Klucel (hydroxypropylcellulose) (HPC)) was 103 % of control and the T/C (dose: 100.0 mg/kg/injection, schedule: Q04DX002 (oral), vehicle: saline with Tween-80) was 112 % of control.

For `O=C1CCCc2c1[nH]c1ccccc21`, the T/C [5] was 97 % of control, the T/C [6] was 98 % of control and the T/C [7] was 98 % of control.

`CCCCN(C)N=Nc1ccc(Cl)cc1C(N)=O` was tested, and the T/C (dose: 100.0 mg/kg/injection, schedule: Q01DX001 (ip), vehicle: Klucel (hydroxypropylcellulose) (HPC)) was 102 % of control, the T/C [3] was 110 % of control and the T/C [8] was 109 % of control. For the same compound, the T/C (dose: 200.0 mg/kg/injection, schedule: Q01DX001 (ip), vehicle: Klucel (hydroxypropylcellulose) (HPC)) was 107 % of control, the T/C [9] was 105 % of control and the T/C [10] was 96 % of control. The T/C (dose: 400.0 mg/kg/injection, schedule: Q01DX001 (ip), vehicle: Klucel (hydroxypropylcellulose) (HPC)) was 98 % of control, the T/C [16] was 105 % of control and the T/C [11] was 93 % of control.
